Among the test systems are SK-MEL-28 melanoma; SF-539 CNS; TK-10 renal; KM12 colon; HL-60(TB) leukemia; NCI-H522 lung; OVCAR-5 ovarian; SW-620 colon; MDA-MB-435; SK-OV-3 ovarian.
What all share (assay): DTP human tumour cell line panel, 48 h

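Exposure lasted 48 hours, with cells grown in 96-well plates and compounds tested at five concentrations. GI50 marks 50% less growth. The concentration for full growth arrest is given as TGI.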

Take `CN(C)c1ncnc2c1nnn2C1OC(CO)C(O)C1O` (stereo unspecified): the concentration for 50% growth inhibition (GI50) (in general, the concentration at which growth is held to half of that of the control) with SK-MEL-28 melanoma is 0.404 µM; with SF-539 CNS, 0.503 µM; in the assay on TK-10 renal, 0.25 µM; with KM12 colon, 1.07 µM; in the assay on HL-60(TB) leukemia it was 0.239 µM; in the assay on NCI-H522 lung, 0.272 µM. The GI50 in the assay with OVCAR-5 ovarian is 2.97 µM; in the assay on SW-620 colon it was 0.293 µM; with MDA-MB-435, 0.234 µM; in the assay on SK-OV-3 ovarian, 0.0413 µM. In addition, the concentration for total growth inhibition (TGI) – broadly, the concentration at which net growth stops – is more than 85.2 µM with SK-MEL-28 melanoma; more than 90.6 µM with SF-539 CNS; more than 100 µM with TK-10 renal; 32.8 µM with KM12 colon; more than 100 µM in the assay with HL-60(TB) leukemia; 1.41 µM in the assay with NCI-H522 lung. Besides, the concentration for total growth inhibition (TGI) in the assay on OVCAR-5 ovarian is more than 100 µM; with SW-620 colon it was more than 100 µM; with MDA-MB-435 it was more than 100 µM; in the assay on SK-OV-3 ovarian, 22.5 µM.
Regarding `COc1ccc2c(c1)C(=O)c1c-2c(Nc2ccc(C(C)=O)cc2)nc2ccccc12`, the GI50 was 52.2 µM with SK-MEL-28 melanoma; 15.5 µM in the assay on SF-539 CNS; 40.1 µM in the assay with TK-10 renal; more than 100 µM in the assay on KM12 colon; more than 100 µM in the assay with HL-60(TB) leukemia; 30.3 µM in the assay on NCI-H522 lung. The GI50 in the assay on OVCAR-5 ovarian is 29.6 µM; in the assay on SW-620 colon it was more than 100 µM; in the assay with MDA-MB-435, more than 100 µM. Moreover, the TGI in the assay on SK-MEL-28 melanoma is more than 100 µM; in the assay on SF-539 CNS it was 44.5 µM; in the assay with TK-10 renal, more than 100 µM; in the assay with KM12 colon, more than 100 µM; in the assay on HL-60(TB) leukemia, more than 100 µM; with NCI-H522 lung it was more than 100 µM. For the same compound, the concentration for total growth inhibition (TGI) in the assay on OVCAR-5 ovarian, in the assay on SW-620 colon and in the assay with MDA-MB-435 was more than 100 µM throughout.
As to `CC(=O)c1c(C)n(C)c2c1nnc1ccccc12`, the total growth inhibition concentration (TGI) in the assay with SK-MEL-28 melanoma, in the assay on SF-539 CNS, in the assay on TK-10 renal, in the assay with KM12 colon, with NCI-H522 lung and in the assay with SW-620 colon was more than 100 µM each time. Besides, the total growth inhibition concentration (TGI) with MDA-MB-435 and in the assay on SK-OV-3 ovarian was more than 100 µM in each case.
Consider `OCC1OC(OCC(O)C(O)C(O)C(/C=N/Nc2ccccc2)=N/Nc2ccccc2)C(O)C(O)C1O` (stereo unspecified), for which the TGI with SK-MEL-28 melanoma, with SF-539 CNS, with TK-10 renal, in the assay on KM12 colon, with HL-60(TB) leukemia and in the assay on OVCAR-5 ovarian was more than 100 µM in each case. The TGI in the assay with SW-620 colon, in the assay with MDA-MB-435 and in the assay with SK-OV-3 ovarian was more than 100 µM in each case.
For the compound `Cc1ccc(Nc2n[nH]c(=S)s2)cc1`, the TGI in the assay on SK-MEL-28 melanoma, in the assay on SF-539 CNS, with TK-10 renal, in the assay with KM12 colon, with HL-60(TB) leukemia and with OVCAR-5 ovarian was more than 100 µM throughout. The TGI in the assay on SW-620 colon, with MDA-MB-435 and with SK-OV-3 ovarian was more than 100 µM each time.
In the case of `CN=C(NC#N)NCCSCc1nc[nH]c1C`, the TGI with SK-MEL-28 melanoma, in the assay with SF-539 CNS, with KM12 colon, with HL-60(TB) leukemia, in the assay on NCI-H522 lung and in the assay on OVCAR-5 ovarian was more than 100 µM in each case. Also, the TGI with SW-620 colon, in the assay with MDA-MB-435 and in the assay on SK-OV-3 ovarian was more than 100 µM each time.
In the case of `Cc1cccc(C(=O)/C=C/SC(=NC#N)SCc2ccccc2)c1`, the GI50 in the assay with SK-MEL-28 melanoma is 25.8 µM; with SF-539 CNS it was 6.67 µM; in the assay with TK-10 renal, 13.1 µM; in the assay with KM12 colon, 31.6 µM; with NCI-H522 lung, 27.1 µM; in the assay on OVCAR-5 ovarian, 19.4 µM. The GI50 in the assay with SW-620 colon was 6.45 µM; with MDA-MB-435, 23.1 µM; with SK-OV-3 ovarian it was more than 100 µM. The TGI in the assay with SK-MEL-28 melanoma was 67 µM; in the assay with SF-539 CNS, 31.7 µM; in the assay with TK-10 renal, 32 µM; in the assay on KM12 colon, more than 100 µM; in the assay on NCI-H522 lung, more than 100 µM; in the assay on OVCAR-5 ovarian, 38.1 µM. Moreover, the TGI in the assay on SW-620 colon was more than 100 µM; in the assay with MDA-MB-435 it was 72.1 µM; with SK-OV-3 ovarian, more than 100 µM.
For the compound `C=CC(C=O)C1(O)CCOC(=O)/C1=C\N` (stereo unspecified), the GI50 in the assay with SK-MEL-28 melanoma, in the assay on TK-10 renal, with KM12 colon, in the assay with NCI-H522 lung, with OVCAR-5 ovarian and in the assay with SW-620 colon was more than 100 µM throughout. Further, the GI50 in the assay on MDA-MB-435 and with SK-OV-3 ovarian was more than 100 µM throughout. Further, the TGI in the assay on SK-MEL-28 melanoma, in the assay on TK-10 renal, in the assay with KM12 colon, in the assay with NCI-H522 lung, in the assay on OVCAR-5 ovarian and with SW-620 colon was more than 100 µM in each case. The total growth inhibition concentration (TGI) in the assay with MDA-MB-435 and in the assay on SK-OV-3 ovarian was more than 100 µM throughout.
`O=S(=O)(O)c1ccc(-c2nnc(-c3ccccn3)nc2-c2ccc(S(=O)(=O)O)o2)o1`: the concentration for total growth inhibition (TGI) with SK-MEL-28 melanoma, in the assay on SF-539 CNS, in the assay with KM12 colon, in the assay on HL-60(TB) leukemia, with NCI-H522 lung and in the assay on OVCAR-5 ovarian was more than 100 µM in each case. Further, the TGI in the assay on SW-620 colon, in the assay with MDA-MB-435 and in the assay with SK-OV-3 ovarian was more than 100 µM each time.
Turning to `Cc1cc(=O)[nH]o1`, the concentration for total growth inhibition (TGI) with SK-MEL-28 melanoma, with SF-539 CNS, in the assay with TK-10 renal, in the assay on NCI-H522 lung, in the assay with OVCAR-5 ovarian and in the assay on SW-620 colon was more than 100 µM throughout. Also, the TGI in the assay on MDA-MB-435 and in the assay on SK-OV-3 ovarian was more than 100 µM each time.
In the case of `COc1cnc2c(c1)C(=O)c1c-2n(CCCN2CCC(O)CC2)c(=O)c2cc(F)ccc12`, the GI50 in the assay with SK-MEL-28 melanoma was 1.39 µM; in the assay with SF-539 CNS, 0.295 µM; with TK-10 renal, 0.323 µM; with HL-60(TB) leukemia, 0.293 µM; in the assay on NCI-H522 lung it was 0.0584 µM; in the assay on OVCAR-5 ovarian it was 0.355 µM. Further, the 50% growth inhibitory concentration (GI50) with SW-620 colon is 0.107 µM; in the assay with MDA-MB-435 it was 0.382 µM; in the assay with SK-OV-3 ovarian, 0.22 µM. For the same compound, the TGI was 9.8 µM in the assay with SK-MEL-28 melanoma; 1.14 µM with SF-539 CNS; 1.59 µM with TK-10 renal; 0.96 µM in the assay with HL-60(TB) leukemia; 0.479 µM in the assay on NCI-H522 lung; 1.6 µM with OVCAR-5 ovarian. Moreover, the TGI in the assay with SW-620 colon worked out at 2.1 µM; in the assay on MDA-MB-435, 5.72 µM; with SK-OV-3 ovarian it was 0.783 µM.
Turning to `C/C1=C/C2=CC(C)C[C@@H]2C(=O)[C@]2(C)C(=O)CC(C)(C)[C@H]2CC1=O` (stereo partly specified), the TGI in the assay on SF-539 CNS, in the assay with TK-10 renal, with KM12 colon, in the assay on HL-60(TB) leukemia, with NCI-H522 lung and with OVCAR-5 ovarian was more than 50 µM each time. Further, the TGI with SW-620 colon, in the assay with MDA-MB-435 and in the assay on SK-OV-3 ovarian was more than 50 µM in each case.

The record behind these values is PubChem BioAssay (NCI).
